Data set [1] concerns NGF. The data set can be described thus: Content of NGF in sciatic nerves of streptozotocin-induced diabetic rats. It counts as in vivo, SD rats. The note with it: 4 weeks. The protocol:
Male SD rats were purchased from Nippon SLC, and used for an experiment at 5 weeks old after preliminary rearing. Streptozotocin (manufactured by Nakalai Tesque) was administered intraperitoneally to the rats at a dose of 100 mg/kg body weight to induce diabetes. The rats were divided into groups according to the blood sugar level after 5 days from the administration of streptozotocin. Next, a solution prepared by dissolving butein [compound (13)] in physiological saline was administered intraperitoneally to the rats at a dose of 100 μg per 1 kg body weight. In the control group, physiological saline alone was administered in the same manner. The rats were administered for consecutive days, and sciatic nerves (about 35 mg) were enucleated after 4 weeks from the beginning of administration. The enucleated sciatic nerves were homogenized, and NGF was extracted. The content of NGF was assayed by an enzyme immunoassay method (NGF Emax Immuno Assay System, manufactured by Promega).
The numerical figures in the table are expressed by an average value±standard error of 6 cases. In addition, the asterisk * means that the group has a significant difference at a significance level of 5% or less as compared to the control group according to Student-t test. […] As described above, it was clarified that the NGF production was enhanced by the administration of butein to a living body.

For data set [2], the system named is CDF1 mice. The data set can be described thus: Toxicity on oral administration to mice. It counts as in vivo. The note with it: oral administration to a mouse once at 1000 mg/kg. From the text: Each of the compounds used in Example 16 was orally administered to mice in the same manner as in Test Example 1 described above.
In data set [3] the test system is SD rats. The data set can be described thus: Toxicity test in rats (Test Example 1). The class given is in vivo. The note with it: male SD rats. As to the method: Male SD rats were purchased from Nippon SLC, and used for an experiment from 6 week-old after preliminary rearing. A solution prepared by dissolving butein [compound (13)] in physiological saline was administered intraperitoneally, or a suspension prepared by suspending butein in 0.5% carboxymethylcellulose was given by forced oral administration, to the rats. The concentration of administration was 300 mg (N=3), 10 mg (N=3), 1 mg (N=3) or 0.1 mg (N=3) per 1 kg body weight in the case of intraperitoneal administration, and 1 g (N=2) and 0.1 g (N=3) per 1 kg body weight in the case of forced oral administration. In the control group, each of the solvents alone was administered in the same manner.

For data set [4], the system named is NGF production in the L-M cells. The data set can be described thus: Enhancing activity for NGF production, Reference Example 1 method (24 hours culture, NGF enzyme immunoassay of culture medium). It counts as cell-based, murine. The note with it: for Enhancement Ratio (%): negative control = 100%. As to the method:
L-M cells (ATCC CCL-1.2) from murine fibroblasts were suspended in an M199 medium (manufactured by ICN) containing 0.5% bactopeptone (manufactured by Gibco BRL) so as to have a concentration of 1.5×10^5 cells/mi. The suspension was put in a 96-well plate in an amount of 0.1 ml each well, and the cells were aseptically cultured. After culturing the cells for 3 days, the medium was removed therefrom, and exchanged with an M199 medium containing 0.5% bovine serum albumin (manufactured by Sigma). Caffeic acid (manufactured by Sigma, dimethyl suif oxide (DMSO) solution), a substance known to have enhancing activity for NGF production, was added to each well containing the cells, so as to have a final concentration of 0, 50, 100 or 200 μM, and the cells were cultured for 24 hours. One having a caffeic acid concentration of 0 μM was used as a negative control. In addition, the final concentration of DM50 in each well was adjusted to 0.1%. After the termination of the culture, the NGF concentration in the culture medium was determined by an enzyme immunoassay method (NGF Emax Immuno Assay System, manufactured by Promega). The degree of the enhancement for NGF production of caffeic acid at each added amount was expressed in percentage as the enhancement ratio (%) on the basis of the NGF concentration in the cell culture medium at each added amount, when the NGF concentration in the cell culture medium of the negative control was defined as 100%. The experiment was carried out twice, and an average value was taken. It was shown that the enhancing activity for NGF production of caffeic acid could be assayed by this method.
The enhancing activity for NGF production of the compound (13) (manufactured by Funakoshi) was assayed in the same manner as in Reference Example 1. The compound (13) was added so as to have a final concentration of 0, 0.5, 1, 2, 5, 10, 20 or 50 μM.
The enhancing activity for NGF production of a compound (14) (manufactured by Sigma) was assayed in the same manner as in Reference Example 1. The compound (14) was added so as to have a final concentration of 0, 50, 100 or 200 μM.
The enhancing activity for NGF production of a compound (15) (manufactured by Sigma) was assayed in the same manner as in Reference Example 1. The compound (15) was added so as to have a final concentration of 0, 12.5, 25 or 50 μM.
The enhancing activity for NGF production of a compound (16) (manufactured by Wako Pure Chemical Industries) was assayed in the same manner as in Reference Example 1. The compound (16) was added so as to have a final concentration of 0, 25, 50 or 100 μM.

For the molecule `O=C(/C=C/c1ccc(O)c(O)c1)c1ccc(O)cc1O` [Compound (13), Butein], the “Content of NGF (pg/Sciatic Nerves)” value in data set [1] (100 μg per 1 kg body weight intraperitoneally, consecutive days, streptozotocin diabetic rats, average ± standard error, N = 6, * significant at 5% vs control (119.2 ± 11.7)) is 187.7 ± 26.4* pg/Sciatic Nerves. The “Content of NGF in the nerves vs control group (in words)” value in data set [1] (100 μg per 1 kg intraperitoneally, diabetic rats) is on record as “content of NGF in the nerves was increased”. Also, in data set [2], the Cases of death result is listed as “no cases of death”. In addition, the “Toxicity findings (death, general conditions, body weight, dissection)” value was “no cases of death, changes in the general conditions, suppression of the increase in the body weight or abnormal findings at the dissection were found” in data set [3] (forced oral administration, 1 g and 0.1 g per 1 kg body weight); “no cases of death, changes in the general conditions, suppression of the increase in the body weight or abnormal findings at the dissection were found” in data set [3] (intraperitoneal administration, 300 mg, 10 mg, 1 mg or 0.1 mg per 1 kg body weight). Besides, the “Enhancement of NGF production (in words)” value in data set [4] (L-M cells) was “enhanced NGF production in the L-M cells in a concentration-dependent manner”. In addition, the “Enhancement Ratio (%)” value in data set [4] (added amount 0.5 μM) was found to be 120%; in data set [4] (added amount 1 μM), 462%; in data set [4] (added amount 2 μM), 1107%; in data set [4] (added amount 5 μM) it was 2100%; in data set [4] (added amount 10 μM), 3686%; in data set [4] (added amount 20 μM), 3927%. Moreover, the “Enhancement Ratio (%)” value in data set [4] (added amount 50 μM) came out at 1743%.

Source of the values: US7268160B2, “Remedies” (Takara Bio, Inc., priority 2000, dated 2007).
